Assay results as given in US20120329854A1, “Methods and Compounds for the Diagnosis and Treatment for Cancer” (UNIVERSITÄTSKLINIKUM FREIBURG, priority 2009, published 2012).
“Also recorded” adds a separate entry of the source.

Legend:
Format in all cases: cell-based, human
AR = test: Western blot analysis of endogenous AR in LNCaP cells; details: siRNA transfection (FIG. 3c, 3e right panels)
Protocol: Experiments were performed as described^2. Western blots were decorated as indicated.

[1] = tested on: H3T6ph at the AREs of the KLK2 and FKBP5 promoters; test: ChIP with α-H3T6ph antibody in LNCaP cells; details: for androgen-induced phosphorylation of H3T6 at the AREs of the KLK2 and FKBP5 promoters upon knockdown: siRNA transfection three days before harvesting, 1×10^−8 M R1881, versus control siRNA
Protocol: (§1) ChIP and Re-ChIP experiments were performed as described^3. LNCaP cells were cultured for 15 min (ChIP) or 210 min (Re-ChIP) in the presence or absence of 1×10^−8M R1881 as indicated. Three days before harvesting, cells were transfected with siRNA (control for PKCβI: 5′-[…]-3′(SEQ ID NO 3); PKCβI: 5′-[…]-3′ (SEQ ID NO 4) (FIG. 3 b, c, f-i); control for PRK1: 5′-[…]-3′ (SEQ ID NO 14); PRK1: 5′-[…]-3′ (SEQ ID NO: 15) (FIG. 3 d, e); Invitrogen) using RNAifect (Qiagen) following the manufacturer's instructions. Immunoprecipitation was performed with specific antibodies (α-AR #06-680 lot 33529 (Upstate Biotechnology), α-H3K4me1 #ab8895 lot 535654, α-H3T6ph #ab14102 lot 481643, α-H3 #ab1791 lot 172452, α-PKCβI S660ph #ab23513 lot 596904 (Abcam), α-PKCβI (C-16) #sc-209 lot 481643, (Santa Cruz), α-H3K4me2 #cs-035-100 lot A391001 (Diagenode), α-PRK1^3, and α-LSD1^2) on protein A-Sepharose 4B (GE-Healthcare). For PCR, 2 μl out of 50 μl DNA extract was used. PCR primers for FKBP5 (+351/+443), KLK2 (−343/−90), SCN1A, SCN2A, GAPDH, and U6 were described previously^1, 2, 6, 11.

[2] = tested on: H3K4me2 and H3K4me1 at the KLK2 and FKBP5 promoters; test: ChIP with α-H3K4me2 and α-H3K4me1 antibodies in LNCaP cells
Protocol: as §1

[3] = tested on: AR, LSD1, PKCβI on AR-regulated genes; test: ChIP for occupancy of AR, LSD1 and PKCβI on AR target promoters in LNCaP cells
Protocol: as §1

[4] = tested on: PKCβI S660ph at the KLK2 and FKBP5 promoters; test: ChIP with α-PKCβI S660ph antibody in LNCaP cells
Protocol: as §1

Molecule | levels of endogenous AR upon knockdown (AR) | androgen-induced phosphorylation of H3T6 at the AREs of the KLK2 and FKBP5 promoters upon knockdown [1] | H3K4me2 and H3K4me1 levels at the KLK2 and FKBP5 promoters upon knockdown ([2]; in the absence of R1881 (FIG. 3f, g)) | H3K4me2 and H3K4me1 levels at the KLK2 and FKBP5 promoters upon knockdown ([2]; in the presence of R1881 (FIG. 3f, g)) | ligand-dependent recruitment of AR and presence of LSD1 on AR-regulated genes upon knockdown ([3]; siRNA transfection (FIG. 3b, c)) | phosphorylation of H3T6 at the AREs of the KLK2 and FKBP5 promoters on addition of ligand ([1]; 1×10^−8 M R1881 versus absence of ligand (FIG. 3b, c)) | levels of H3K4me2 and H3K4me1 at the KLK2 and FKBP5 promoters on addition of ligand ([2]; R1881 versus absence of ligand (FIG. 3f, g)) | phosphorylation at S660 of PKCβI at the KLK2 and FKBP5 promoters on addition of ligand ([4]; R1881 versus absence of ligand (FIG. 3b, c)) | presence of PKCβI on AR target promoters upon knockdown ([3]; siRNA transfection (FIG. 3d, e)) | ligand-dependent activation of PKCβI (S660ph) upon knockdown ([4]; siRNA transfection, with R1881 (FIG. 3d, e))
5′-CAUUGUCCUCGUAAGAGAUGCUAAA-3′ (listed as RNA, chemistry not given here) [siRNA directed against PKCβI] | does not affect | blocked; also recorded: blunts | Elevated levels | reduces H3K4me2 and H3K4me1 levels to those observed in the absence of R1881 | does neither affect |  |  |  |  | 
C[C@]1(O)CC[C@H]2[C@@H]3CCC4=CC(=O)CCC4=C3C=C[C@@]21C [R1881, reference compound] |  |  |  |  |  | results in phosphorylation of H3T6 | increased | androgen-induced phosphorylation at 5660 of PKCβI |  | 
5′-GAACAUGAUCCAGACCUACAGCAAU-3′ (listed as RNA, chemistry not given here) [siRNA directed against PRK1, siRNA against Protein-kinase-C-related kinase 1 (PRK1), Invitrogen, reference compound] | does neither affect | abolished |  |  |  |  |  |  | does neither affect | blocked
